Source: US4855323A, “Leukotriene antagonists, a process for the preparation thereof, and the use thereof for the treatment of diseases” (Hoechst Aktiengesellschaft, priority 1987, dated 1989)
Values after ≈ are worked out from the molar mass of the structure shown.

Assays:
Format in all cases: cell-based
[1] = tested on: LTE4-induced contraction of strips of guinea pig lung; assay: inhibition of LTE4-induced contraction of strips of guinea pig lung; conditions: Cavia porcellus; LTE4 3 ng/ml; indomethacin-pretreated strips (10^-6 g/ml); test substance added after maximum contraction plateau; 37° C.; read-out: IC50 with respect to LTE4
Protocol: (§1) The leukotriene-antagonistic action of the substances of the general formula I according to the invention is determined by the inhibition of the leukotriene-induced contraction of strips of guinea pig lung. The method which is used is a modification of the test described by Foreman, Shelly and Weber (Arch. Int. Pharmacodyn. 278, 193-206 (1985)).
(§2) Guinea pigs are sacrificed by an overdose of ether. The thoracic cavity is opened; the lungs are removed and cut into strips 5 cm long, which are stored in physiological saline. For the measurement, the strips of lung are placed in an organ bath filled with Ringer's solution which is equilibrated at 37° C. and through which carbogen (O2 /CO2 95:5 parts by volume) is passed. The strips are left to equilibrate under a load of 0.5-1 g for 30-60 minutes. The strips of lung are pretreated with indomethacin (10^-6 g/ml of bath liquid) before the test starts.
(§3) The contraction is induced by adding LTC4, LTD4 or LTE4 in a concentration of 3 ng/ml of bath liquid. The test substances are administered therapeutically into the bath, after the maximum contraction plateau has been reached, in several concentrations and at time intervals of 10 minutes. 6-12 strips of lung are used for each concentration of the test substance.
(§4) The concentrations of the test substances at which the contraction is reduced by 50% (IC50) are indicated in μg/ml.

[2] = tested on: LTC4-induced contraction of strips of guinea pig lung; assay: inhibition of LTC4-induced contraction of strips of guinea pig lung; conditions: Cavia porcellus; LTC4 3 ng/ml; indomethacin-pretreated strips (10^-6 g/ml); test substance added after maximum contraction plateau; 37° C.; read-out: IC50 with respect to LTC4
Protocol: as §1, §2, §3, §4

[3] = tested on: LTD4-induced contraction of strips of guinea pig lung; assay: inhibition of LTD4-induced contraction of strips of guinea pig lung; conditions: Cavia porcellus; LTD4 3 ng/ml; indomethacin-pretreated strips (10^-6 g/ml); test substance added after maximum contraction plateau; 37° C.; read-out: IC50 with respect to LTD4
Protocol: as §1, §2, §3, §4

Row | IC50 [1] [µg/mL] | IC50 [2] [µg/mL] | IC50 [3] [µg/mL] | Compound
1 | 3 (≈ 7 µM) | 0.6 (≈ 1.4 µM) | 1 (≈ 2.33 µM) | COC(=O)CCSCC(O)Cc1cccc(C2CCCC2)c1OCc1ccccc1 (racemic) [Compound B, Methyl (6RS)-7-(2-benzyloxy-3-cyclopentylphenyl)-6-hydroxy-4-thiaheptanoate]
2 | 3 (≈ 7.24 µM) | 3 to 6 (≈ 7.24 to 14.5 µM) | 3 to 6 (≈ 7.24 to 14.5 µM) | O=C(O)CCSCC(O)Cc1cccc(C2CCCC2)c1OCc1ccccc1 (racemic) [Compound C, (6RS)-7-(2-Benzyloxy-3-cyclopentylphenyl)-6-hydroxy-4-thiaheptanoic acid]

More lines, now with the values behind:

Row | Compound | IC50 [1] [µg/mL] | IC50 [2] [µg/mL] | IC50 [3] [µg/mL]
3 | COC(=O)CCSCC(O)Cc1ccccc1OCc1ccccc1 (racemic) [Compound A, Methyl (6RS)-7-(2-benzyloxyphenyl)-6-hydroxy-4-thiaheptanoate] | 0.6 to 1 (≈ 1.66 to 2.77 µM) | 0.6 to 1 (≈ 1.66 to 2.77 µM) | 0.6 (≈ 1.66 µM)
4 | COC(=O)CCSCC(O)Cc1cc(Cl)ccc1OCc1ccccc1 (racemic) [Compound D, Methyl (6RS)-7-(2-benzyloxy-5-chlorophenyl)-6-hydroxy-4-thiaheptanoate] | 1 to 3 (≈ 2.53 to 7.6 µM) | 6 to 10 (≈ 15.2 to 25.3 µM) | 3 (≈ 7.6 µM)
5 | OCCSCC(O)Cc1cccc(C2CCCC2)c1OCc1ccccc1 (racemic) [Compound E, (5RS)-6-(2-benzyloxy-3-cyclopentylphenyl)-3-thiahexane-1,5-diol] | 1 to 3 (≈ 2.59 to 7.76 µM) | 6 to 10 (≈ 15.5 to 25.9 µM) | 6 to 10 (≈ 15.5 to 25.9 µM)
